# pEC50: −log10 of the molar value.
# Assays:
# OR4S2 = target: T1, OR4S2 (Homo sapiens, UniProt Q8NH73); test: cell-based dose-response, cAMP increase by HTRF, HEK293T cells (endogenous RTP1 activated) co-transfected with human Golf, Rho-FLAG tagged receptor; set-up: the human receptors were tagged with a Rho-FLAG® tag combination; expressed in transfected cells
# T1 sequence (Q8NH73 1-311): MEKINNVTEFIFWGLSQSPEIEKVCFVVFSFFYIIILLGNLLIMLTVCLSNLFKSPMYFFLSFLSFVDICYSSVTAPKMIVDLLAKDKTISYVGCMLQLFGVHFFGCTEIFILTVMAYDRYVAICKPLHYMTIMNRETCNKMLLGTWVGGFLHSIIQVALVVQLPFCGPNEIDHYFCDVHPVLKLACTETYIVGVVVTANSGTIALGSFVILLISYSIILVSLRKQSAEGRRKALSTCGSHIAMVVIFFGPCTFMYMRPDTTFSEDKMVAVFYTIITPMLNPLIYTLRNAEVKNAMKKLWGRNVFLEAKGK
# Procedure: Functional dose-response experiments were performed to evaluate the level of DMTS activity of the modified cell line expressing individual putative DMTS receptors. Using a cell-based assay, mouse receptor Olfr1193, Olfr1093, Olfr1097, Olrf166, Olfr169, Olfr738 and Olfr742, and human receptor OR4S2 and OR52N5 were tested in an HEK293T cell line wherein the endogenous RTP1 gene has been activated and the odorant receptor chaperone protein was expressed (described in WO2016/201153). The mouse receptor genes were tagged with a Lucy-FLAG®-Rho tag combination and the human receptors were tagged with a Rho-FLAG® tag combination resulting in a tag:receptor fusion protein for the cell based assay. Receptor genes were co-transfected with the canonical olfactory human G-protein alpha subunit Golf gene and were exposed to increasing concentrations of the malodor odorant. Co-expression of the human Golf activates the Gs transduction pathway that leads to an internal cAMP increase upon binding to the appropriate ligand. Odorant-induced activity was detected by measuring the cAMP increase in the cytosol using an Homogeneous Time Resolved Fluorescence (HTRF) based kit (CisBio, cAMP dynamic 2 kit, cat. 62AM4PEJ). […]
# mouse receptor Olfr1097 = target: T2, mouse receptor Olfr1097 (Mus musculus, UniProt Q8VGA2); test: cell-based dose-response, cAMP increase by HTRF, HEK293T cells (endogenous RTP1 activated) co-transfected with human Golf, Lucy-FLAG-Rho tagged receptor
# T2 construct: cAMP HTRF
# T2 sequence (Q8VGA2 1-315): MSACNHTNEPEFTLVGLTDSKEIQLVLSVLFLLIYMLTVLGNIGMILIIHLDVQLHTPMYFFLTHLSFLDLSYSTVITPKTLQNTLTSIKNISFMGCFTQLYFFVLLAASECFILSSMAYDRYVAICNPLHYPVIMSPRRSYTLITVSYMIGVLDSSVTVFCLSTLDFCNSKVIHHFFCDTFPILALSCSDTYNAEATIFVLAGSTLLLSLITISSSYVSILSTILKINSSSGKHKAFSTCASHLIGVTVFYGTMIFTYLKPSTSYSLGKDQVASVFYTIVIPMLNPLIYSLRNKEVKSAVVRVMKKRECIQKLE
# Procedure: (§1) Functional dose-response experiments were performed to evaluate the level of DMTS activity of the modified cell line expressing individual putative DMTS receptors. Using a cell-based assay, mouse receptor Olfr1193, Olfr1093, Olfr1097, Olrf166, Olfr169, Olfr738 and Olfr742, and human receptor OR4S2 and OR52N5 were tested in an HEK293T cell line wherein the endogenous RTP1 gene has been activated and the odorant receptor chaperone protein was expressed (described in WO2016/201153). The mouse receptor genes were tagged with a Lucy-FLAG®-Rho tag combination and the human receptors were tagged with a Rho-FLAG® tag combination resulting in a tag:receptor fusion protein for the cell based assay. Receptor genes were co-transfected with the canonical olfactory human G-protein alpha subunit Golf gene and were exposed to increasing concentrations of the malodor odorant. Co-expression of the human Golf activates the Gs transduction pathway that leads to an internal cAMP increase upon binding to the appropriate ligand. Odorant-induced activity was detected by measuring the cAMP increase in the cytosol using an Homogeneous Time Resolved Fluorescence (HTRF) based kit (CisBio, cAMP dynamic 2 kit, cat. 62AM4PEJ). […] The activity levels are reported by the potency of the DMTS induced-response for each receptor as a measure of the EC50 value (the effective concentration at which the receptor responds at its half-maximal activation efficacy level for a given compound).
# (§2) Functional dose-response experiments were performed to confirm the DMTS activity on the DMTS receptors identified in Example 2 and to further characterize their response to DMDS. Using the same cell-based assay described in Example 2, mouse receptors Olfr1193, Olfr1093, Olfr1097, Olfr166, Olfr169, Olfr738, Olfr742 and of human odorant receptor OR4S2 were tested with increasing concentration of DMTS, DMDS or butyric acid (control). […] A weak response for OR4S2 and Olfr169 to butyric acid was visible but was too weak to consider butyric acid as a representative ligand for these receptors. The activity levels are reported by the potency of DMTS or DMDS induced-response for each receptor as a measure of the EC50 value, EC50DMTS and EC50DMDS respectively. […] Competitive antagonists at the malodor binding site of these receptors have the potential to reduce the unpleasant perception of both DMTS and DMDS.
# mouse receptor Olfr1193 = target: T3, mouse receptor Olfr1193 (Mus musculus, UniProt A2AV13); test: as above
# T3 construct: cAMP HTRF
# T3 sequence (A2AV13 1-318): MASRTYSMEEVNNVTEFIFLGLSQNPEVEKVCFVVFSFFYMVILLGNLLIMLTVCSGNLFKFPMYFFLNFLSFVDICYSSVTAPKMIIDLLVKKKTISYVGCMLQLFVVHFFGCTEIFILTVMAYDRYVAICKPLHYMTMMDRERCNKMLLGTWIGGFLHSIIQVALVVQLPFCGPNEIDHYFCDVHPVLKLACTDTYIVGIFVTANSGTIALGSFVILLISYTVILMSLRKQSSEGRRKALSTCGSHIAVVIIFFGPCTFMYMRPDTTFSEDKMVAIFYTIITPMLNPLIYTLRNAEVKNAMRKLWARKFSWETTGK
# Procedure: as §1, §2
# mouse receptor Olfr738 = target: T4, mouse receptor Olfr738 (Mus musculus, UniProt L7N1X7); test: as above
# T4 construct: cAMP HTRF
# T4 sequence (L7N1X7 1-311): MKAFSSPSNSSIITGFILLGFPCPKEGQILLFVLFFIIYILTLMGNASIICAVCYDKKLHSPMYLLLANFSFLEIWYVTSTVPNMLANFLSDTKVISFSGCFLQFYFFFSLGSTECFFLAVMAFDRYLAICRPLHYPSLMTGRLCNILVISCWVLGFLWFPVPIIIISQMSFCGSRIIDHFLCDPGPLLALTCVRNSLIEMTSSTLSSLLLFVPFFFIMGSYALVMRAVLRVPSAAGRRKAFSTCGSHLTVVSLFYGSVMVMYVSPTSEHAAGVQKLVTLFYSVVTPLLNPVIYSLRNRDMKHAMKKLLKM
# Procedure: as §1, §2
# mouse receptor Olfr742 = target: T5, mouse receptor Olfr742 (Mus musculus, UniProt A2RTP5); test: as above
# T5 construct: cAMP HTRF
# T5 sequence (A2RTP5 1-311): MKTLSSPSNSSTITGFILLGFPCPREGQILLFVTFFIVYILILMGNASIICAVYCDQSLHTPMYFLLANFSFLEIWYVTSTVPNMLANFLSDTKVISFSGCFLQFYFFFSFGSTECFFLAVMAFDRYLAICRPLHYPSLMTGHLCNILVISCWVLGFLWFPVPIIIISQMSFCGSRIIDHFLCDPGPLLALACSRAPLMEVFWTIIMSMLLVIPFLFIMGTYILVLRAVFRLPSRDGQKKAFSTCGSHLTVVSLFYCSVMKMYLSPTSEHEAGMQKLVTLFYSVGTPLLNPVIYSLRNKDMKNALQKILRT
# Procedure: as §1, §2
structure (smiles),measurement,setting,value
"CSSSC [DMTS, dimethyl trisulfide]",pEC50,"OR4S2; FIG. 2, Example 2, SEQ ID NO: 42",5.70
same,pEC50,"OR4S2; FIG. 5, Example 5, SEQ ID NO: 42",6.49
same,pEC50,"mouse receptor Olfr1097; FIG. 2, Example 2, SEQ ID NO: 6",4.77
same,pEC50,"mouse receptor Olfr1097; FIG. 5, Example 5, SEQ ID NO: 6",4.74
same,pEC50,"mouse receptor Olfr1193; FIG. 2, Example 2, SEQ ID NO: 2",4.26
same,pEC50,"mouse receptor Olfr1193; FIG. 5, Example 5, SEQ ID NO: 2",4.80
same,pEC50,"mouse receptor Olfr738; FIG. 2, Example 2, SEQ ID NO: 12",3.43
same,pEC50,"mouse receptor Olfr738; FIG. 5, Example 5, SEQ ID NO: 12",3.72
same,pEC50,"mouse receptor Olfr742; FIG. 2, Example 2, SEQ ID NO: 14",5.15
same,pEC50,"mouse receptor Olfr742; FIG. 5, Example 5, SEQ ID NO: 14",4.80
